The values that follow come from US12018021B2 (UCB Biopharma SRL, priority 2018, dated 2024).

Chain of IgE-Tb / FcεRIα-Y131A-AF488 (P01854 1-427 limits assumed, stated change not applied): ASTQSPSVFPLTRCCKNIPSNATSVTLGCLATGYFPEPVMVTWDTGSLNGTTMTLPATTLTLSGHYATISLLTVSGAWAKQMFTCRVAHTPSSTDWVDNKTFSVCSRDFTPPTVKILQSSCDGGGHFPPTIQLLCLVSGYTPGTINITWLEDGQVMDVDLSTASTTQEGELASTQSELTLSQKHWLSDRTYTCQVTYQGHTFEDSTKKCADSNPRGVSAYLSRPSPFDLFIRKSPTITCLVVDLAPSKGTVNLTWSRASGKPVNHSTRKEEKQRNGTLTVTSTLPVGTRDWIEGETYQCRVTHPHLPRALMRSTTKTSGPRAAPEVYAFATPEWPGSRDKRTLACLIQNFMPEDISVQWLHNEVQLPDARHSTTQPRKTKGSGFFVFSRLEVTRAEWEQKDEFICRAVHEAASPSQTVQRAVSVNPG

This experiment concerns the target IgE-Tb / FcεRIα-Y131A-AF488 (Homo sapiens, UniProt P01854). Put plainly: IgE-Tb / FcεRIα-Y131A-AF488 FRET assay (protocol for examples 1 to 233). It counts as binding. The conditions noted are these: examples 1 to 233: 5 nM IgE-Tb, 25 nM FcεRIα-Y131A-AF488, incubated 2 hours at room temperature; read-out: Y131A FRET IC50 range. In outline:
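Compounds (top final concentration usually 10 μM, 3-fold, 10 points, 2% DMSO) incubated 2 h at room temperature with IgE-Tb (5 nM) and FcεRIα-Y131A-AF488 (25 nM). Background from 200 nM unlabelled receptor subtracted; FRET ratio 520/495 nm after 330 nm excitation gave percent inhibition, fitted four-parameter for IC50.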
Take `Cc1ccc(NCC2(O)CCc3sc(NC(=O)C4CC4)c(C(=O)NCC4CC4)c3C2)cc1` (centres unmarked) [Example 60, 2-(Cyclopropanecarbonylamino)-N-(cyclopropylmethyl)-5-hydroxy-5-[(4-methylanilino)methyl]-6,7-dihydro-4H-benzothiophene-3-carboxamide]: the IC50 was 1 to 10 µM. In the case of `Cc1ccc(N2CC3(CCc4sc(NC(=O)C5CC5)c(C(=O)NCC5CC5)c4C3)OC2=O)cc1` (centres unmarked) [Example 61, 2-(Cyclopropanecarbonylamino)-N-(cyclopropylmethyl)-2′-oxo-3′-(p-tolyl)spiro[6,7-dihydro-4H-benzothiophene-5,5′-oxazolidine]-3-carboxamide] it was under 1 µM. The same measure for `Nc1ncccc1C1CCc2sc(NC(=O)C3CC3)c(C(=O)NCC3CC3)c2C1` (centres unmarked) [Example 62, 5-(2-Amino-3-pyridyl)-2-(cyclopropanecarbonylamino)-N-(cyclopropylmethyl)-4,5,6,7-tetrahydrobenzothiophene-3-carboxamide]: under 1 µM.

Consider `Cc1ccc(-c2cnc(C3CCc4sc(NC(=O)C5CC5)c(C(=O)NCC5CC5)c4C3)[nH]2)cc1` (centres unmarked) [Example 63, 2-(Cyclopropanecarbonylamino)-N-(cyclopropylmethyl)-5-[5-(p-tolyl)-1H-imidazol-2-yl]-4,5,6,7-tetrahydrobenzothiophene-3-carboxamide], for which the IC50 is under 1 µM. The same measure for `N#CC1CCc2sc(NC(=O)C3CC3)c(C(=O)NCC3CC3)c2C1` (centres unmarked) [Example 64, 5-Cyano-2-(cyclopropanecarbonylamino)-N-(cyclopropylmethyl)-4,5,6,7-tetrahydrobenzothiophene-3-carboxamide]: 1 to 10 µM; for `N#CC1CCCc2c1sc(NC(=O)C1CC1)c2C(=O)NCC1CC1` (centres unmarked) [Example 65, 7-Cyano-2-(cyclopropanecarbonylamino)-N-(cyclopropylmethyl)-4,5,6,7-tetrahydrobenzothiophene-3-carboxamide]: 1 to 10 µM. Consider `O=C(NCC1CC1)c1c(NC(=O)C2CC2)sc2c1C[C@H](C(F)(F)F)CC2` [Example 66, (5R)-2-(Cyclopropanecarbonylamino)-N-(cyclopropylmethyl)-5-(trifluoromethyl)-4,5,6,7-tetrahydrobenzothiophene-3-carboxamide], for which the IC50 lay within 1 to 10 µM. For the compound `O=C(NCC1CC1)c1c(NC(=O)C2CC2)sc2c1C[C@@H](C(F)(F)F)CC2` [Example 67, (5S)-2-(Cyclopropanecarbonylamino)-N-(cyclopropylmethyl)-5-(trifluoromethyl)-4,5,6,7-tetrahydrobenzothiophene-3-carboxamide], the IC50 is under 1 µM.

For the compound `Cc1coc(C2CCc3sc(NC(=O)C4CC4)c(C(=O)NCC4CC4)c3C2)n1` (centres unmarked) [Example 68, 2-(Cyclopropanecarbonylamino)-N-(cyclopropylmethyl)-5-(4-methyloxazol-2-yl)-4,5,6,7-tetrahydrobenzothiophene-3-carboxamide], the IC50 was 1 to 10 µM. Regarding `NCC1(O)CCc2sc(NC(=O)C3CC3)c(C(=O)NCC3CC3)c2C1` (centres unmarked) [Example 69, 5-(Aminomethyl)-2-(cyclopropanecarbonylamino)-N-(cyclopropylmethyl)-5-hydroxy-6,7-dihydro-4H-benzothiophene-3-carboxamide], the IC50 was 10 to 50 µM. Take `Cc1ccc(NC(=O)NCC2(O)CCc3sc(NC(=O)C4CC4)c(C(=O)NCC4CC4)c3C2)cc1` (centres unmarked) [Example 70, 2-(Cyclopropanecarbonylamino)-N-(cyclopropylmethyl)-5-hydroxy-5-[(p-tolylcarbamoylamino)methyl]-6,7-dihydro-4H-benzothiophene-3-carboxamide]: the IC50 lay in the range of 1 to 10 µM. In the case of `Cc1noc(C2CCc3sc(NC(=O)C4CC4)c(C(=O)NCC4CC4)c3C2)n1` (centres unmarked) [Example 71, 2-(Cyclopropanecarbonylamino)-N-(cyclopropylmethyl)-5-(3-methyl-1,2,4-oxadiazol-5-yl)-4,5,6,7-tetrahydrobenzothiophene-3-carboxamide] it was 1 to 10 µM; in that of `Cc1nnc(C2CCc3sc(NC(=O)C4CC4)c(C(=O)NCC4CC4)c3C2)o1` (centres unmarked) [Example 72, 2-(Cyclopropanecarbonylamino)-N-(cyclopropylmethyl)-5-(5-methyl-1,3,4-oxadiazol-2-yl)-4,5,6,7-tetrahydrobenzothiophene-3-carboxamide], 1 to 10 µM; in that of `O=C(NCC1CC1)c1c(NC(=O)C2CC2)sc2c1CC(C(=O)N1CCCC1)CC2` (centres unmarked) [Example 73, 2-(Cyclopropanecarbonylamino)-N-(cyclopropylmethyl)-5-(pyrrolidine-1-carbonyl)-4,5,6,7-tetrahydrobenzothiophene-3-carboxamide], 1 to 10 µM. `CC1(O)CCc2sc(NC(=O)C3CC3)c(C(=O)NCC3CC3)c2C1` (centres unmarked) [Example 74, 2-(Cyclopropanecarbonylamino)-N-(cyclopropylmethyl)-5-hydroxy-5-methyl-6,7-dihydro-4H-benzothiophene-3-carboxamide]: the IC50 fell in the range of 10 to 50 µM.

In the case of `O=C(Nc1sc2c(c1C(=O)N1CC[C@@H](F)C1)CCCC2)C1CC1` [Example 75, N-[3-[(3R)-3-Fluoropyrrolidine-1-carbonyl]-4,5,6,7-tetrahydrobenzothiophen-2-yl]cyclopropanecarboxamide], the IC50 was 1 to 10 µM. The same measure for `O=C(Nc1sc2c(c1C(=O)N1CC(F)C1)CCCC2)C1CC1` [Example 76, N-[3-(3-Fluoroazetidine-1-carbonyl)-4,5,6,7-tetrahydrobenzothiophen-2-yl]cyclopropanecarboxamide]: 1 to 10 µM; for `COC1CN(C(=O)c2c(NC(=O)C3CC3)sc3c2CCCC3)C1` [Example 77]: 1 to 10 µM; for `O=C(Nc1sc2c(c1C(=O)N1CCCCC1)CCCC2)C1CC1` [Example 78, N-[3-(Piperidine-1-carbonyl)-4,5,6,7-tetrahydrobenzothiophen-2-yl]cyclopropanecarboxamide]: 1 to 10 µM.

Take `CNC(=O)c1c(NC(=O)C2CC2)sc2c1CCCC2O` (centres unmarked) [Example 79, 2-(Cyclopropanecarbonylamino)-7-hydroxy-N-methyl-4,5,6,7-tetrahydrobenzothiophene-3-carboxamide]: the IC50 was 10 to 50 µM.

With `CC1Cc2c(sc(NC(=O)C3CC3)c2C(=O)NCC2CC2)C(C)C1` (centres unmarked) [Example 81, 2-(Cyclopropanecarbonylamino)-N-(cyclopropylmethyl)-5,7-dimethyl-4,5,6,7-tetrahydrobenzothiophene-3-carboxamide], the IC50 fell in the range of 1 to 10 µM. In the case of `CC1CCc2sc(NC(=O)C3CC3)c(C(=O)NCC3CC3)c2C1` (centres unmarked) [Example 82, 2-(Cyclopropanecarbonylamino)-N-(cyclopropylmethyl)-5-methyl-4,5,6,7-tetrahydrobenzothiophene-3-carboxamide], the IC50 lay in the range of 1 to 10 µM. The same measure for `CC1(C)CCc2sc(NC(=O)C3CC3)c(C(=O)NCC3CC3)c2C1` [Example 84, 2-(Cyclopropanecarbonylamino)-N-(cyclopropylmethyl)-5,5-dimethyl-6,7-dihydro-4H-benzothiophene-3-carboxamide]: 1 to 10 µM; for `CC1CC(=O)c2sc(NC(=O)C3CC3)c(C(=O)NCC3CC3)c2C1` (centres unmarked) [Example 85, 2-(Cyclopropanecarbonylamino)-N-(cyclopropylmethyl)-5-methyl-7-oxo-5,6-dihydro-4H-benzothiophene-3-carboxamide]: 1 to 10 µM; for `O=C(NCC1CC1)c1c(NC(=O)C2CC2)sc2c1CC1(CC2)OCCO1` [Example 86, 2′-(Cyclopropanecarbonylamino)-N-(cyclopropylmethyl)spiro[1,3-dioxolane-2,5′-6,7-dihydro-4H-benzothiophene]-3′-carboxamide]: under 1 µM. In the case of `CC(C)C(=O)Nc1sc2c(c1C(=O)NCC1CC1)CCCC2` [Example 87, N-(Cyclopropylmethyl)-2-(2-methylpropanoylamino)-4,5,6,7-tetrahydrobenzothiophene-3-carboxamide] it was 10 to 50 µM; in that of `O=C(NCC1CC1)c1c(NC(=O)C2CCC2)sc2c1CCCC2` [Example 88, 2-(Cyclobutanecarbonylamino)-N-(cyclopropylmethyl)-4,5,6,7-tetrahydrobenzothiophene-3-carboxamide], 10 to 50 µM; in that of `CC1CCc2sc(NC(=O)C3CC3)c(C(=O)NCC3CC3)c2C1C` (centres unmarked) [Example 89, 2-(Cyclopropanecarbonylamino)-N-(cyclopropylmethyl)-4,5-dimethyl-4,5,6,7-tetrahydrobenzothiophene-3-carboxamide], 1 to 10 µM.

With `O=C1NC(=O)C2(CCc3sc(NC(=O)C4CC4)c(C(=O)NCC4CC4)c3C2)N1` (centres unmarked) [Example 92, 2-(Cyclopropanecarbonylamino)-N-(cyclopropylmethyl)-2′,5′-dioxo-spiro[6,7-dihydro-4H-benzothiophene-5,4′-imidazolidine]-3-carboxamide], the IC50 lay in the range of 1 to 10 µM.

Take `O=C(OCC1CC1)c1c(NC(=O)C2CC2)sc2c1CC(NC(=S)Nc1cccnc1)CC2` (centres unmarked) [Example 93, Cyclopropylmethyl 2-(cyclopropanecarbonylamino)-5-(3-pyridylcarbamothioylamino)-4,5,6,7-tetrahydrobenzothiophene-3-carboxylate]: the IC50 was in the range of 1 to 10 µM.

`O=C(OCC1CC1)c1c(NC(=O)C2CC2)sc2c1CC(n1cnnc1Nc1cccnc1)CC2` (centres unmarked) [Example 94, Cyclopropylmethyl 2-(cyclopropanecarbonylamino)-5-[3-(3-pyridylamino)-1,2,4-triazol-4-yl]-4,5,6,7-tetrahydrobenzothiophene-3-carboxylate]: the IC50 was under 1 µM. Turning to `CC(C)(C)OC(=O)NC1CCCc2c1sc(NC(=O)C1CC1)c2C(=O)NCC1CC1` (centres unmarked) [Example 97, tert-Butyl N-[2-(cyclopropanecarbonylamino)-3-(cyclopropylmethylcarbamoyl)-4,5,6,7-tetrahydrobenzothiophen-7-yl]carbamate], the IC50 lay in the range of 1 to 10 µM.

Broadly, the IC50 is the concentration that gives 50% inhibition.
